Experimental data taken from ChEMBL document CHEMBL1142127, “Neuroprotective principles from Gastrodia elata” (J Nat Prod, 2007).
Calls of active or inactive are those of the source. The calls are words filed in the database; no cut-off is given here.

What was measured:
PC-12 [1] = test: Prevention of serum deprivation-induced PC12 cell apoptosis at > 100 uM by MTT assay; assay type: functional, cell-based; settings: Rattus norvegicus
PC-12 [2] = test: Prevention of serum deprivation-induced PC12 cell apoptosis by MTT assay; assay type: functional, cell-based; settings: Rattus norvegicus
Adenosine receptor A2a = Adenosine receptor A2a (Rattus norvegicus, UniProt P30543); test: Binding affinity to adenosine A2A receptor in rat brain striatum; assay type: tissue-based
PC-12 [3] = test: Prevention of serum deprivation-induced PC12 cell apoptosis at 100 uM by MTT assay; assay type: functional, Rattus norvegicus

Sequence of Adenosine receptor A2a (P30543 whole entry): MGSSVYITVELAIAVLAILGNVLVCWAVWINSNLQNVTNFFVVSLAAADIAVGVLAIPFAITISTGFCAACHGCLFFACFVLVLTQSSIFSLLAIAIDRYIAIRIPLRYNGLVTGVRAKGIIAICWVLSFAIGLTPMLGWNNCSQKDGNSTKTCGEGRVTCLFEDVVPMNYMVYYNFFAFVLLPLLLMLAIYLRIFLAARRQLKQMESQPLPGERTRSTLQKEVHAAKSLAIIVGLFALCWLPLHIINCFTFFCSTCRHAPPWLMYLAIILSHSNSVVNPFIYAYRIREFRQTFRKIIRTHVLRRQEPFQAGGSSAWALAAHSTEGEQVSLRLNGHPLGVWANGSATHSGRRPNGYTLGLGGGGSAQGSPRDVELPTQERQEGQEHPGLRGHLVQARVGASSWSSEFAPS

IC50 (Adenosine receptor A2a) [µM] | Ki (Adenosine receptor A2a) [µM] | Compound | Activity (PC-12 [1]) | EC50 (PC-12 [2]) [µM] | Activity (PC-12 [3]) [%]
– | – | C[C@H]1O[C@@H](Oc2ccc(COC(=O)CC(O)(CC(=O)OCc3ccc(O[C@@H]4O[C@H](CO)[C@@H](O)[C@H](O)[C@H]4O)cc3)C(=O)Oc3ccc(O[C@H]4O[C@H](CO)[C@@H](O)[C@H](O)[C@H]4O)cc3)cc2)[C@H](O)[C@@H](O)[C@@H]1O (some centres undefined) | inactive | – | –
– | – | OCc1ccc(O[C@@H]2O[C@H](CO)[C@@H](O)[C@H](O)[C@H]2O)cc1 | inactive | – | –
42.9 | 24.1 | Oc1ccc(CSCc2ccc(O)cc2)cc1 | – | 7.2 | –
4.66 | 2.62 | OC[C@H]1O[C@@H](n2cnc3c(NCc4ccc(O)cc4)ncnc32)[C@H](O)[C@@H]1O | – | 0.037 | –
– | – | Nc1ncnc2c1ncn2[C@@H]1O[C@H](CO)[C@@H](O)[C@H]1O [ADENOSINE] | – | – | 80
